Patent US9375457B2, “Composition comprising Rhizoma coptidis, Cortex phellodendri and Fructus gardeniae and for treating neurodegenerative diseases” (Hong Kong Baptist University, priority 2013, dated 2016)

What was measured:
[1] = test system: intracellular Aβ1-40 and Aβ1-42 in N2a-SwedAPP cells; test: Sandwich ELISA of intracellular Aβ in N2a-SwedAPP cells; format: cell-based, murine; parameters: key to Aβs (overall influence): ↓ decreased; ↑ increased; ? unchanged
Description: N2a-SwedAPP cells were seeded at a density of 4×10^5/mL in DMEM medium in a 6-well plate and cultured for 1 day. After transfer, cells were treated with different doses of RC, CP, FG and RS for 48 hours, then the extracellular media were collected for detection of sAPPα and sAPPβ-sw, and cells were harvested to quantify F1-APP and β-actin by Western blot analysis, as described previously by Durairajan et al. For intracellular APP, APP-CTFs and Aβ preparation, cells were washed with ice-cold PBS twice and solubilized in ice-cold RIPA buffer with protease inhibitor cocktail added. Lysates were collected and centrifuged at 16,000×g for 15 minutes at 4° C. The resulting supernatants were collected, and their protein concentrations were determined with bicinchoninic acid (BCA) protein assay reagent (Thermo Scientific, IL, USA). […] The conditioned media were standardized to total cell lysate protein.
The levels of intracellular Aβ1-40 and Aβ1-42 are quantified by using a sandwich ELISA as previously described by Durairajan et al., 2011 with minor modification. Equal amounts of cell or brain lysates are used for Aβ quantification by sandwich ELISA. The monoclonal antibody 6E10 is used as the capture antibody by adding to ELISA plates (0.2 μg diluted in 0.1 M Na2CO3 (pH 9.6) per well) and incubated overnight at 4° C. The plates are washed with PBS (0.05% Tween 20) and blocked with 4% BlockAce (Serotec, Raleigh, N.C., USA) for 2 hours at room temperature. Equilibrated protein lysates from each treatment (a 100 μL volume is adjusted in all treatment groups by using PBS) are applied in duplicate and incubated at room temperature for 2 hours with constant rotation at 30 rpm. Biotinylated monoclonal anti-Aβ40 5C3 (50 ng per well) and biotinylated monoclonal 8G7 (50 ng per well) antibodies are used for detection of Aβ1-40 and Aβ1-42, respectively, and are diluted in 1% BlockAce and incubated for 2 hours at room temperature. Plates are thoroughly washed with PBS (0.05% Tween 20), and streptavidin conjugated HRP is added for 1 hour at room temperature. Finally the plates are washed four times with PBST before adding the substrate TMB for 30 minutes. Absorbance at 450 nm is measured in duplicate wells after addition of 2 M H2SO4. All ELISA experimental data are from three different days. Synthetic Aβ40 and Aβ42 peptides are used for construction of calibration curves, and Aβ is measured in lysates.

[2] = test system: Aβ1-40 and Aβ1-42 in brain of TgCRND8 mice; test: Aβ ELISA of serially extracted brain fractions of TgCRND8 mice; format: in vivo; conditions: oral, 25 mg/kg per day
Source text: (§1) All animal handling experiments were approved by the Hong Kong Baptist University Committee on the Use of Human and Animal Subjects in Teaching and Research (HASC, approval #: 12-13/0030). TgCRND8 mice expressing human APP with Swedish (K670N/M671L) and Indiana (V717F) mutations were used to evaluate the effect of baicalein on Aβ. Heterozygous TgCRND8 mice on a C57BL/6J background were used to breed a colony of experimental animals. The TgCRND8 mouse is an early onset model of AD with visible Aβ deposits in the brains of the animals starting from 3 months of age as described in Chishti M A, Yang D S, Janus C, Phinney A L, Home P, Pearson J, Strome R, Zuker N, Loukides J, French J, Turner S, Lozza G, Grilli M, Kunicki S, Morissette C, Paquette J, Gervais F, Bergeron C, Fraser P E, Carlson G A, George-Hyslop P S, Westaway D. (2001) Early-onset amyloid deposition and cognitive deficits in transgenic mice expressing a double mutant form of amyloid precursor protein 695. J Biol Chem 276: 21562-21570. The animals are housed in a controlled environment under a 12/12 hours light/dark cycle. They are allowed free access to food and water. The oral administration of baicalein (25 mg/kg/d) is commenced at 2 months of age and ended at 5 months before being killed. A single dose (25 mg/kg/d) of baicalein is tested in animal study as no difference in baicalein levels in the brain between doses of 25 and 50 mg/kg/d is found in our pilot study. Control mice orally gavaged with tap water only for the same administration period. At the conclusion of the treatment period, mice were deeply anesthetized by chloral hydrate and perfused with phosphate buffered saline (PBS). The brains were then dissected and processed for Aβ immunostaining
(§2) To detect differences in the level of APP metabolic products among treatment groups, the levels of Aβ, F1-APP, pAPPThr668, CTFs, sAPPα and sAPPβ-sw are measured after a 3-step sequential extraction using Tris buffered saline (TBS) (pH 7.4), 1% Triton X-100/TBS (TBSX) and formic acid (FA) methods as described in Youmans K L, Leung S, Zhang J, Maus E, Baysac K, Bu G, Vassar R, Yu C, LaDu M J. (2011) Amyloid-β42 alters apolipoprotein E solubility in brains of mice with five familial AD mutations. J Neurosci Methods 196: 51-59. All extraction buffers also contained protease and phosphatase inhibitor cocktail (Roche Diagnostics, Basel, Switzerland). Snap frozen tissue is homogenized in 15 volumes (w/v) of TBS homogenization buffer and centrifuged at 100,000×g for 1 h at 4° C. using a Type 70 Ti rotor in an Optima™ L-80XP Ultracentrifuge (Beckman Coulter, Fla., USA). The TBS-soluble fraction is aliquoted, frozen in liquid nitrogen and stored at −80° C. The pellets are resuspended in 15 volumes of TBSX and kept on ice for 30 minutes, followed by a second centrifugation at 100,000×g for 1 hour at 4° C. The TBSX soluble fraction is aliquoted, frozen and stored as for the TBS fraction. The TBSX-insoluble pellet is resuspended in 2 mL of 70% FA and centrifuged at 100,000×g at 4° C. for 1 hour. The FA extracts are neutralized by the addition of 20 volumes of 1 M Tris pH 11, aliquoted and stored at −80° C. Total protein content in TBS- and TBSX-extracts is determined via BCA assay. […]
The levels of intracellular Aβ1-40 and Aβ1-42 are quantified by using a sandwich ELISA as previously described by Durairajan et al., 2011 with minor modification. Equal amounts of cell or brain lysates are used for Aβ quantification by sandwich ELISA. […]

[3] = test system: APP processing (sAPPs, F1-APP, pAPPThr668, CTFs) in brain of TgCRND8 mice; test: Western blot of APP metabolic products in brain fractions of TgCRND8 mice; format: in vivo; conditions: oral, 25 mg/kg per day
Source text: as §1
as §2, with “assay. Total protein in FA-extracts is determined by Bradford Protein Microassay (Bio-Rad, CA, USA).” for “assay.”

TgCRND8 mice = test: Tolerability of chronic oral administration in TgCRND8 mice; format: in vivo; conditions: 25 mg/kg per day, nearly 3 months
Source text: as §1, with “A single dose (25 mg/kg/d) of baicalein is tested in animal study as no difference in baicalein levels in the brain between doses of 25 and 50 mg/kg/d is found in our pilot study. Control mice orally gavaged with tap water only for the same administration period. At the conclusion of the treatment period, mice were deeply anesthetized by chloral hydrate and perfused with phosphate buffered saline (PBS). The brains were then dissected and processed for Aβ immunostaining” left out

[4] = Baicalein concentration in brain of TgCRND8 mice; format: in vivo
[5] = rat, in vivo; cited from earlier work

O=c1cc(-c2ccccc2)oc2cc(O)c(O)c(O)c12 [baicalein]
augmentation of intracellular Aβ1-40, fold of basal level ([1]; 12.5 μM, 48 h): 1.23 fold | augmentation of intracellular Aβ1-42, fold of basal level ([1]; 12.5 μM, 48 h): 1.38 fold | Aβs (overall influence) ([1]; N2a-SwedAPP cells): ↑ | effect on TBS soluble Aβ levels in brain ([2]; TBS fraction): did not significantly affect | increase of Aβ1-40 in TBSX-soluble brain fraction ([2]; TBSX fraction): 35% | increase of Aβ1-42 in TBSX-soluble brain fraction ([2]; TBSX fraction): 65% | increase of Aβ1-40 in FA brain fraction ([2]; formic acid fraction): 80% | increase of Aβ1-42 in FA brain fraction ([2]; formic acid fraction): 32% | increase in sAPPα signal intensity in brain ([3]; TBS fraction): 44% | increase in sAPPβ-sw signal intensity in brain ([3]; TBS fraction): 35% | increase in level of CTFs in brain ([3]; TBSX fraction): 40% | increase in level of F1-APP in brain ([3]; TBSX fraction): 30% | increase in level of pAPP in brain ([3]; TBSX fraction): 41% | adverse side effects (TgCRND8 mice): nor did it cause any notable adverse side effects | change of animal body weight (TgCRND8 mice): did not significantly change | mean concentration of baicalein in the brain ([4]; TgCRND8 mice, orally administered 25 mg/kg): 0.12 ± 0.01 µg/mL | difference in baicalein levels in the brain between doses ([4]; mouse, in vivo): no difference | brain bioavailability of baicalein (greater than berberine) [5]: 1 to 10 µM
